The target in assay [1] is T1, Cbl-b (Homo sapiens (Human), UniProt Q13191). The experiment in a line: Cbl-b displacement assay (Cbl-b inhibition assay), TR-FRET probe displacement, Biological Example 1. The format is binding. In a few lines: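 N-terminally Avitagged, biotinylated truncated Cbl-b (0.5 nM "High" or 0.125 nM "Low", final) pre-incubated 1 h at room temperature with compound (1% DMSO) in HEPES pH 7.5 buffer. Then 150 nM BODIPY FL probe (~EC40) plus 2 nM streptavidin-terbium for 1 h; TR-FRET read at 520/620 nm.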

In assay [2] the target is T1, Cbl-b. Nature of the assay: Cbl-b displacement assay (Cbl-b inhibition assay), Biological Example 8. Type of assay: binding. As to conditions: 0.125 nM Cbl-b final concentration (Low); Table 8-1; read-out: Cbl-b IC50 (Low). On the procedure: (§1) Candidate compounds were evaluated for their ability to bind and inhibit Cbl-b, an E3 ubiquitin-protein ligase, as evidenced by their ability to displace a fluorophore-labeled probe bound to Cbl-b.
(§2) The ability of candidate compounds to displace a known inhibitor and thereby inhibit Cbl-b activity was measured by monitoring the interaction of Cbl-b with a fluorophore-labeled probe in the presence of the candidate compound. A truncated variant of Cbl-b (UniProt number Q13191) containing residues 36-427 and an Avitag at its N-terminus was co-expressed with BirA biotin ligase and purified using a standard protocol (see Dou et al., Nature Structural and Molecular Biology 8: 982-987, 2013; Avidity LLC).
(§3) Fluorescently-labeled inhibitor probe was synthesized and tagged with BODIPY FL. Cbl-b displacement assays were performed in a 384-well plate at room temperature in a 10 μl reaction volume by pre-incubating 0.5 nM Cbl-b or 0.125 nM Cbl-b (final concentration, indicated as “High” and “Low”, respectively) in an assay buffer containing 20 mM HEPES pH 7.5, 150 mM NaCl, 0.01% Triton X-100, 0.01% BSA and 0.5 mM TCEP in the presence of a candidate compound in 1% DMSO (final concentration) for 1 hour. After incubation in the presence of the candidate compound, the plate was incubated for an additional 1 hour in the presence of an approximate EC40 binding saturation consisting of 150 nM fluorescently-labeled inhibitor probe and 2 nM Streptavidin-Terbium (Cisbio) (final concentrations). Following the 1 hour incubation, the plates were read for TR-FRET signal at 520/620 nM using an Envision plate reader (Perkin Elmer).
(§4) The resulting data for the Cbl-b activity assays were analyzed using standard methods to determine the IC50 values for the tested compounds.

Assay [3] has as its target T1, Cbl-b. Nature of the assay: Cbl-b displacement assay (Cbl-b inhibition assay), Biological Example 12. Type of assay: binding. As to conditions: 0.125 nM Cbl-b final concentration (Low); Table 12-1; read-out: Cbl-b IC50 (Low). On the procedure:
as §1, §2, §3, §4

For assay [4], the system named is primary human total T-cells. Nature of the assay: Primary human total T-cell activation: IL-2 secretion, Biological Example 2. As to conditions: 48 hours, fold change over baseline; for fold induction at 0.3 µM: inhibitor 0.3 μM; for fold induction at 1 µM: inhibitor 1 μM; for fold induction at 3 µM: inhibitor 3 μM. The format is cell-based.
Assay [5] has as its system primary human total T-cells. The experiment in a line: Primary human total T-cell activation: CD25 surface staining, Biological Example 2. Type of assay: cell-based. As to conditions: 48 hours, fold change over baseline; for fold induction at 0.3 µM: inhibitor 0.3 μM; for fold induction at 1 µM: inhibitor 1 μM; for fold induction at 3 µM: inhibitor 3 μM.
In assay [6] the test system is primary human total T-cells. Nature of the assay: Primary human total T-cell activation: CD25 surface staining, Biological Example 9. To be noted: 48 hours, fold change over baseline; for fold induction at 0.3 µM: inhibitor 0.3 μM; for fold induction at 1 µM: inhibitor 1 μM. The format is cell-based.
The test system of assay [7] is primary human total T-cells. The experiment in a line: Primary human total T-cell activation: IL-2 secretion, Biological Example 13. To be noted: 48 hours, fold change over baseline; for fold induction at 0.3 µM: inhibitor 0.3 μM; for fold induction at 1 µM: inhibitor 1 μM. The format is cell-based.
The test system of assay [8] is primary human total T-cells. Nature of the assay: Primary human total T-cell activation: IL-2 secretion, Biological Example 9. The format is cell-based. As to conditions: 48 hours, fold change over baseline; for fold induction at 0.3 µM: inhibitor 0.3 μM; for fold induction at 1 µM: inhibitor 1 μM.
Assay [9] has as its system primary human total T-cells. The experiment in a line: Primary human total T-cell activation: CD25 surface staining, Biological Example 13. To be noted: 48 hours, fold change over baseline; for fold induction at 0.3 µM: inhibitor 0.3 μM; for fold induction at 1 µM: inhibitor 1 μM. Type of assay: cell-based.
The mark [10] stands for this setting: 0.125 nM Cbl-b final concentration (Low), read-out: Cbl-b activity IC50 (Low).
[11] abbreviates: anti-CD3/anti-CD28 co-stimulation.
Setting [12] is: anti-CD3/anti-CD28 co-stimulation, read-out: IL-2 secretion CD3/CD28 1 μM.
[13] abbreviates: anti-CD3 alone, read-out: IL-2 secretion CD3 1 μM.
[14] abbreviates: anti-CD3/anti-CD28 co-stimulation, read-out: CD25 staining CD3/CD28 1 μM.
[15] abbreviates: anti-CD3 alone, read-out: CD25 staining CD3 1 μM.
[16] abbreviates: anti-CD3/anti-CD28 co-stimulation, Table 9-1.
[17] abbreviates: anti-CD3/anti-CD28 co-stimulation, Table 9-1, read-out: CD25 staining CD3/CD28 1 μM.
Setting [18] is: anti-CD3 alone, Table 9-1, read-out: CD25 staining CD3 1 μM.
Where [19] appears, read: anti-CD3/anti-CD28 co-stimulation, Table 13-1.
Setting [20] is: anti-CD3/anti-CD28 co-stimulation, Table 13-1, read-out: IL-2 secretion CD3/CD28 1 μM.
Setting [21] is: anti-CD3 alone, Table 13-1, read-out: IL-2 secretion CD3 1 μM.
[22] abbreviates: anti-CD3/anti-CD28 co-stimulation, Table 9-1, read-out: IL-2 secretion CD3/CD28 1 μM.
The mark [23] stands for this setting: anti-CD3 alone, Table 9-1, read-out: IL-2 secretion CD3 1 μM.
[24] abbreviates: anti-CD3/anti-CD28 co-stimulation, Table 13-1, read-out: CD25 staining CD3/CD28 1 μM.
Where [25] appears, read: anti-CD3 alone, Table 13-1, read-out: CD25 staining CD3 1 μM.
Where [26] appears, read: anti-CD3 alone, inhibitor 3 μM, Table 9-1.
Setting [27] is: anti-CD3 alone, inhibitor 3 μM, Table 13-1.

Usually IC50 stands for the concentration that inhibits the measured activity by half.

T1 sequence (Q13191 36-427): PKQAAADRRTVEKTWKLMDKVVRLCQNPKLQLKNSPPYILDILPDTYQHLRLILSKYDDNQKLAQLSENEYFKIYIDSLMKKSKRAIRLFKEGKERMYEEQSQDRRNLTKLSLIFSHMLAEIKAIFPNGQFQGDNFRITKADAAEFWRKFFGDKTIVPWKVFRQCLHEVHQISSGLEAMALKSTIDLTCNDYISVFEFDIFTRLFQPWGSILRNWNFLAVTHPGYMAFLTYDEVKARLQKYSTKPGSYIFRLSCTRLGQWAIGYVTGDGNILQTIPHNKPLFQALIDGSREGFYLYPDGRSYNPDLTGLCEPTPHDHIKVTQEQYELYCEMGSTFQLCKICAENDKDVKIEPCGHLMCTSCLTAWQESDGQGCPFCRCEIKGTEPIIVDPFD

`C[C@@H]1CN(Cc2cc3c(c(C4CC4)n2)CN(c2cccc(C4(Cc5nncn5C)COC4)c2)C3=O)CCC1(F)F` [Compound 34, (R)-4-Cyclopropyl-6-((4,4-difluoro-3-methylpiperidin-1-yl)methyl)-2-(3-(3-((4-methyl-4H-1,2,4-triazol-3-yl)methyl)oxetan-3-yl)phenyl)-2,3-dihydro-1H-pyrrolo[3,4-c]pyridin-1-one]: the IC50 in assay [1] (setting [10]), in assay [2] and in assay [3] was 1 to 5 nM each time.
In the case of `C[C@H]1CCCN([C@@H](C)c2cc3c(c(C4CC4)n2)CN(c2cccc(C4(Cc5nncn5C)COC4)c2)C3=O)C1` [Compound 51, 4-cyclopropyl-2-(3-(3-((4-methyl-4H-1,2,4-triazol-3-yl)methyl)oxetan-3-yl)phenyl)-6-((S)-1-((S)-3-methylpiperidin-1-yl)ethyl)-2,3-dihydro-1H-pyrrolo[3,4-c]pyridin-1-one], the concentration for half-maximal inhibition (IC50) in assay [1] (setting [10]) was below 1 nM. The fold induction at 0.3 µM in [4] (setting [11]) is above 15; in assay [5] (setting [11]), above 1.39. Besides, the fold induction at 1 µM in assay [4] (setting [12]) is above 15; in [4] (setting [13]), above 0.66; in assay [5] (setting [14]) it was above 1.39; in [5] (setting [15]), above 1.14. Besides, the fold induction at 3 µM in [4] (anti-CD3 alone) was above 0.66; in assay [5] (anti-CD3 alone), above 1.14.
Regarding `C[C@H]1CCCN([C@H](C)c2cc3c(c(C4CC4)n2)CN(c2cccc(C4(Cc5nncn5C)COC4)c2)C3=O)C1` [Compound 52, 4-cyclopropyl-2-(3-(3-((4-methyl-4H-1,2,4-triazol-3-yl)methyl)oxetan-3-yl)phenyl)-6-((R)-1-((S)-3-methylpiperidin-1-yl)ethyl)-2,3-dihydro-1H-pyrrolo[3,4-c]pyridin-1-one], the concentration for half-maximal inhibition (IC50) in [1] (setting [10]) was 1 to 5 nM; in assay [1] (Cbl-b concentration (High or Low) not given, read-out: IC50 values in the Cbl-b inhibition assay of Biological Example 1), 1 to 5 nM. Further, the fold induction at 0.3 µM in assay [4] (setting [11]) is above 15; in assay [5] (setting [11]), above 1.39. In addition, the fold induction at 1 µM was above 15 in assay [4] (setting [12]), above 0.66 in [4] (setting [13]), above 1.39 in [5] (setting [14]) and above 1.14 in assay [5] (setting [15]). Moreover, the fold induction at 3 µM in [4] (anti-CD3 alone) was above 0.66; in [5] (anti-CD3 alone) it was above 1.14.
In the case of `C[C@@H]1[C@@H](c2nncn2C)[C@H]1c1cccc(N2Cc3c(cccc3C(F)(F)F)C2=O)c1` [Compound 54], the fold induction at 0.3 µM is 1.25 to 1.39 in [6] (setting [16]), below 10 in [7] (setting [19]), below 10 in [8] (setting [16]) and 1.25 to 1.39 in [9] (setting [19]). Also, the fold induction at 1 µM was 1.25 to 1.39 in assay [6] (setting [17]); above 1.14 in [6] (setting [18]); below 10 in assay [7] (setting [20]); below 0.33 in assay [7] (setting [21]); below 10 in assay [8] (setting [22]); below 0.33 in [8] (setting [23]). Also, the fold induction at 1 µM was 1.25 to 1.39 in assay [9] (setting [24]) and above 1.14 in assay [9] (setting [25]). For the same compound, the IC50 in assay [2] and in [3] was above 5 nM each time.
In the case of `C[C@@H](c1cc2c(c(C(F)(F)F)c1)CN(c1cccc(C3(Cc4nncn4C)COC3)c1)C2=O)N1CC[C@H](F)C1` [Compound 55], the fold induction at 0.3 µM was above 1.39 in assay [6] (setting [16]), above 15 in [7] (setting [19]), above 15 in assay [8] (setting [16]) and above 1.39 in assay [9] (setting [19]). The fold induction at 1 µM is above 1.39 in assay [6] (setting [17]); above 1.14 in [6] (setting [18]); above 15 in assay [7] (setting [20]); 0.34 to 0.66 in [7] (setting [21]); above 15 in [8] (setting [22]); 0.34 to 0.66 in assay [8] (setting [23]). Besides, the fold induction at 1 µM is above 1.39 in [9] (setting [24]) and above 1.14 in [9] (setting [25]). The fold induction at 3 µM was above 1.14 in assay [6] (setting [26]), 0.34 to 0.66 in assay [7] (setting [27]), 0.34 to 0.66 in assay [8] (setting [26]) and above 1.14 in assay [9] (setting [27]). Moreover, the IC50 in assay [2] and in assay [3] was 1 to 5 nM throughout.
Take `C[C@H](c1cc2c(c(C(F)(F)F)c1)CN(c1cccc(C3(Cc4nncn4C)COC3)c1)C2=O)N1CC[C@H](F)C1` [Compound 56]: the fold induction at 0.3 µM in [6] (setting [16]) lay in the range of 1.25 to 1.39; in [7] (setting [19]), 11 to 15; in [8] (setting [16]), 10 to 15; in assay [9] (setting [19]), 1.25 to 1.39. Besides, the fold induction at 1 µM in [6] (setting [17]) is above 1.39; in assay [6] (setting [18]) it was above 1.14; in assay [7] (setting [20]), 11 to 15; in [7] (setting [21]) it was below 0.33; in assay [8] (setting [22]), 10 to 15; in assay [8] (setting [23]), below 0.33. For the same compound, the values for the fold induction at 1 µM in [9] (setting [24]) and in [9] (setting [25]) were above 1.39 and above 1.14, respectively. Moreover, the IC50 in [2] and in assay [3] was above 5 nM throughout.
Turning to `Cn1cnnc1C(F)(F)[C@](C)(F)c1cccc(N2Cc3c(cc(CN4CC[C@H](F)C4)cc3C(F)(F)F)C2=O)c1` [Compound 57], the fold induction at 0.3 µM in assay [6] (setting [16]) is 1.25 to 1.39; in assay [7] (setting [19]), below 10; in assay [8] (setting [16]), below 10; in [9] (setting [19]), 1.25 to 1.39. Moreover, the fold induction at 1 µM in assay [6] (setting [17]) is above 1.39; in assay [6] (setting [18]), above 1.14; in [7] (setting [20]), 11 to 15; in assay [7] (setting [21]), below 0.33; in assay [8] (setting [22]), 10 to 15; in [8] (setting [23]) it was below 0.33. Also, the fold induction at 1 µM in assay [9] (setting [24]) is above 1.39; in assay [9] (setting [25]) it was above 1.14. Moreover, the IC50 in [2] and in assay [3] was above 5 nM in each case.
Turning to `Cn1cnnc1C(F)(F)[C@](C)(F)c1cccc(N2Cc3c(cc(CN4CCC(F)(F)C4)cc3C(F)(F)F)C2=O)c1` [Compound 58], the fold induction at 0.3 µM in [6] (setting [16]) is below 1.24; in [7] (setting [19]), below 10; in assay [8] (setting [16]) it was below 10; in assay [9] (setting [19]) it was below 1.24. Besides, the fold induction at 1 µM in assay [6] (setting [17]) was 1.25 to 1.39; in assay [6] (setting [18]), below 1.04; in assay [7] (setting [20]), below 10; in assay [7] (setting [21]), below 0.33; in assay [8] (setting [22]), below 10; in [8] (setting [23]), below 0.33. In addition, the fold induction at 1 µM is 1.25 to 1.39 in assay [9] (setting [24]) and below 1.04 in assay [9] (setting [25]). Further, the half-inhibitory concentration (IC50) in assay [2] and in assay [3] was above 5 nM in each case.

The values are drawn from patent US11464802B2, “3-substituted piperidine compounds for Cbl-b inhibition, and use thereof” (Nurix Therapeutics, Inc., priority 2019, dated 2022).
